Laboratory results: patent publication US20150232856A1, “TELOMERASE INHIBITORS FOR USE IN THERAPY” (AGENCY FOR SCIENCE, TECHNOLOGY AND RESEARCH, priority 2012, published 2015)

Test system: A2780cp cells
Assay: Colony formation assay
Format: cell-based, human
Details: significantly rescued by ectopic expression of p65 (FIGS. 1G & H)
Method: F. Colony formation assay: A2780cp cells were infected with p65 expressing or GFP (Cntrl) virus followed by plating 1000 cells per condition. The cells were then treated with 2 μM MST312 or DMSO control for 2 weeks followed by staining with crystal violet after 12 days. Number of colonies was counted from duplicate plates.

sh-hTERT: shRNA directed against hTERT, SEQ ID NO: 48 (CATTTCATCAGCAAGTTTGGA)
colony forming ability of cells: reduction in colony forming ability
